According to US11339144B2 (Navitor Pharmaceuticals, Inc., priority 2017, dated 2022):

What was measured:
Rheb = Rheb (Homo sapiens (Human), UniProt Q15382); test: Affinity Selection Mass Spectrometry (ASMS); type: binding; settings: affinity (R3/R0) in Affinity Selection Mass Spectrometry assay
Method in brief: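 Affinity selection used 2 μM compound with 60 μM Rheb and 180 μM GDP for 30 min at room temperature. After 10 kDa ultrafiltration washes, protein was denatured in MeCN and bound compound quantified by C18 UPLC with Q-TOF MS, against a no-protein control.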

[1] = molecular target: HA-GST-Rheb (GTP-γ-S loaded) activating mTORC1 (Homo sapiens (Human), UniProt Q15382); test: Rheb-dependent in vitro kinase assay (Rheb-IVK; LanthaScreen or Western readout); type: biochemical; settings: Rheb-dependent in vitro kinase assay; read-out: IVK IC50
Sequence of HA-GST-Rheb (GTP-γ-S loaded) activating mTORC1 (Q15382 1-181): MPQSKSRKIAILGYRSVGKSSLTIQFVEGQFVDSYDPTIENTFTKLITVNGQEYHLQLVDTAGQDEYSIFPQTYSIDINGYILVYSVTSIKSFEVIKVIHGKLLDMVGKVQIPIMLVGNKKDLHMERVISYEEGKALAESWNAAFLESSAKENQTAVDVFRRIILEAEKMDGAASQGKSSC

Sequence of Rheb (Q15382 1-169 limits assumed): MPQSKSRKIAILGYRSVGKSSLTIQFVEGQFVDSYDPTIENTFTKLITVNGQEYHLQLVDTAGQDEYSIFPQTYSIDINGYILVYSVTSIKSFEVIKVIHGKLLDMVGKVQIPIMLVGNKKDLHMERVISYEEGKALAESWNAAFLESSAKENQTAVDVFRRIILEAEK

Compound	IC50 [1] [µM]	ASMS (R3/R0) (Rheb)
Cn1ccc2c(Nc3ccccc3)cccc21 [I-299]	> 100	C (an affinity (R3/R0)<20%)
OCc1nc2cc(OCc3ccc(Oc4ccccc4)cc3)c(Cl)c(Cl)c2[nH]1 [I-320, [6,7-dichloro-5-[(4-phenoxyphenyl)methoxy]-1H-benzimidazol-2-yl]methanol]	10 to 100	B (an affinity (R3/R0) between 100% and 20%)
CN1CCN(C(=O)c2cc3nc(-c4ccnc5[nH]ccc45)[nH]c3c(Cl)c2Cl)CC1 [I-321]	> 100	C (an affinity (R3/R0)<20%)
O=C(O)Cn1c(-c2ccnc3[nH]ccc23)nc2c(Sc3ccc(Cl)cc3)c(Cl)ccc21 [I-322]	> 100	C (an affinity (R3/R0)<20%)
O[C@@H]1CCC[C@@H](COc2c(Cl)c(Cl)cc3[nH]c(-c4ccncc4)nc23)C1 [I-323]	> 3	B (an affinity (R3/R0) between 100% and 20%)
O[C@@H]1CCC[C@H](COc2c(Cl)c(Cl)cc3[nH]c(-c4ccncc4)nc23)C1 [I-324, (1R,3S)-3-((5,6-dichloro-2-(pyridin-4-yl)-1H-benzo[d]imidazol-4-yloxy)methyl)cyclohexanol]	> 3	B (an affinity (R3/R0) between 100% and 20%)
OCC(O)c1nc2c(OCC3CCCCC3)c(Cl)c(Cl)cc2[nH]1 (stereo not shown) [I-325, 1-(5,6-dichloro-4-(cyclohexylmethoxy)-1H-benzo[d]imidazol-2-yl)ethane-1,2-diol]	10 to 100	B (an affinity (R3/R0) between 100% and 20%)
Clc1ccc(Sc2cc(Cl)cc3[nH]c(-c4ccnc5[nH]ccc45)nc23)cc1 [I-326, 6-chloro-4-(4-chlorophenylthio)-2-(1H-pyrrolo[2,3-b]pyridin-4-yl)-1H-benzo[d]imidazole]	10 to 100	B (an affinity (R3/R0) between 100% and 20%)
O=C(O)c1cc2nc(-c3ccnc4[nH]ccc34)[nH]c2c(Cl)c1Cl [I-327]	> 100	C (an affinity (R3/R0)<20%)
COc1ccc(COc2cc3nc(CO)[nH]c3c(Cl)c2Cl)cc1 [I-328]	> 100	B (an affinity (R3/R0) between 100% and 20%)
O=[N+]([O-])c1ccc(COc2cc3nc(CO)[nH]c3c(Cl)c2Cl)cc1 [I-329, (6,7-dichloro-5-(4-nitrobenzyloxy)-1H-benzo[d]imidazol-2-yl)methanol]	10 to 100	A (an affinity (R3/R0)>100%)
O=C(O)c1ccc(CCn2c(-c3ccnc4[nH]ccc34)nc3cc(Cl)c(Cl)cc32)cc1 [I-331, 4-(2-(5,6-dichloro-2-(1H-pyrrolo[2,3-b]pyridin-4-yl)-1H-benzo[d]imidazol-1-yl)ethyl)benzoic acid]	10 to 100	B (an affinity (R3/R0) between 100% and 20%)
CN1CCN(C(=O)Cc2nc3cc(Cl)c(OCc4ccc(Cl)cc4)cc3[nH]2)CC1 [I-332, 2-[5-chloro-6-[(4-chlorophenyl)methoxy]-1H-benzimidazol-2-yl]-1-(4-methylpiperazin-1-yl)ethanone]	10 to 100	A (an affinity (R3/R0)>100%)
O=C(O)c1nc2c(OCc3ccc(Cl)cc3)c(Cl)c(Cl)cc2[nH]1 [I-333]	10 to 100	A (an affinity (R3/R0)>100%)
O=C(O)Cn1c(-c2c[nH]c3ncccc23)nc2cc(Cl)c(Cl)cc21 [I-334, 2-(5,6-dichloro-2-(1H-pyrrolo[2,3-b]pyridin-3-yl)-1H-benzo[d]imidazol-1-yl)acetic acid]	10 to 100	B (an affinity (R3/R0) between 100% and 20%)
O=C(O)c1ccc(CCn2c(-c3c[nH]c4ncccc34)nc3cc(Cl)c(Cl)cc32)cc1 [I-335, 4-(2-(5,6-dichloro-2-(1H-pyrrolo[2,3-b]pyridin-3-yl)-1H-benzo[d]imidazol-1-yl)ethyl)benzoic acid]	100 to 300	B (an affinity (R3/R0) between 100% and 20%)
CN1CCC[C@H]1CNC(=O)c1ccc(-c2nc3cc(Cl)c(Cl)cc3[nH]2)cc1 [I-336]	> 100	B (an affinity (R3/R0) between 100% and 20%)

Now from value to molecule, other results behind:

IC50 [1] [µM]	Compound	ASMS (R3/R0) (Rheb)
> 3	CN1CCC(CNC(=O)c2nc3cc(OCc4ccc(Cl)cc4)c(Cl)c(Cl)c3[nH]2)CC1 [I-337, 6,7-dichloro-5-(4-chlorobenzyloxy)-N-((1-methylpiperidin-4-yl)methyl)-1H-benzo[d]imidazole-2-carboxamide]	B (an affinity (R3/R0) between 100% and 20%)
> 3	O=C(O)c1nc2cc(OCc3ccc(Cl)cc3)c(Cl)c(Cl)c2[nH]1 [I-338, 6,7-dichloro-5-(4-chlorobenzyloxy)-1H-benzo[d]imidazole-2-carboxylic acid]	B (an affinity (R3/R0) between 100% and 20%)
> 3	Clc1ccc(Sc2cc(Cl)cc3[nH]c(-c4c[nH]c5ncccc45)nc23)cc1 [I-339, 6-chloro-4-(4-chlorophenylthio)-2-(1H-pyrrolo[2,3-b]pyridin-3-yl)-1H-benzo[d]imidazole]	B (an affinity (R3/R0) between 100% and 20%)
> 100	Cc1nc2c(OCc3ccc(Cl)cc3)c(Cl)c(Cl)cc2[nH]1 [I-340]	B (an affinity (R3/R0) between 100% and 20%)
> 100	CN1CCC[C@@H]1CNC(=O)c1ccc(-c2nc3cc(Cl)c(Cl)cc3[nH]2)cc1 [I-341]	B (an affinity (R3/R0) between 100% and 20%)
10 to 100	O=C(O)c1nc2c(OCC3CCCCC3)c(Cl)c(Cl)cc2[nH]1 [I-342, 5,6-dichloro-4-(cyclohexylmethoxy)-1H-benzo[d]imidazole-2-carboxylic acid]	B (an affinity (R3/R0) between 100% and 20%)
10 to 100	O=C(O)c1nc2cc(OCc3ccc(Cl)cc3)c(Cl)cc2[nH]1 [I-343, 6-chloro-5-(4-chlorobenzyloxy)-1H-benzo[d]imidazole-2-carboxylic acid]	A (an affinity (R3/R0)>100%)
> 100	Clc1cc2nc(-c3ccc(-c4nn[nH]n4)cc3)[nH]c2cc1Cl [I-344]	A (an affinity (R3/R0)>100%)
> 100	C=Cc1nc2c(OCC3CCCCC3)c(Cl)c(Cl)cc2[nH]1 [I-345]	B (an affinity (R3/R0) between 100% and 20%)
> 100	Clc1cc2nc(-c3ccnc(N4CCNCC4)c3)[nH]c2cc1Cl [I-346]	A (an affinity (R3/R0)>100%)
> 100	CC(C)(C)OC(=O)N1CCN(c2cc(-c3nc4cc(Cl)c(Cl)cc4[nH]3)ccn2)CC1 [I-347]	B (an affinity (R3/R0) between 100% and 20%)
> 100	Clc1cc2[nH]c(-c3ccncc3)nc2c(OCC2CCCCC2)c1Cl [I-348]	B (an affinity (R3/R0) between 100% and 20%)
> 100	CN1CCN(C(=O)c2ccc(-c3nc4cc(Cl)c(Cl)cc4[nH]3)cc2)CC1 [I-349]	B (an affinity (R3/R0) between 100% and 20%)
> 100	CC(C)(C)OC(=O)NCc1nc2cc(OCc3ccc(Cl)cc3)c(Cl)c(Cl)c2[nH]1 [I-350]	B (an affinity (R3/R0) between 100% and 20%)
> 100	CN(C)c1cc(-c2nc3cc(Cl)c(Cl)cc3[nH]2)ccn1 [I-351]	A (an affinity (R3/R0)>100%)
